Data reported in patent US8987195B2 (priority 2012, dated 2015).
Where two headings read alike, the source gives them in different places.

Legend:
[1] = target: HCV NS3/4A protease genotype 1b (Hepatitis C virus genotype 1b, UniProt P26663); test: HCV NS3/4A protease time-resolved fluorescence (TRF) assay, Ki against genotype 1b; assay type: biochemical
In short: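 Enzyme 0.2 nM 1b / 0.4 nM A156T / 0.025 nM 3a; 30 min preinc. w/ cpd; 25 nM TRF peptide; 2.5 h RT; ex 340/em 615 time-delayed; 4-param IC50 → Ki = IC50/(1+[S]/KM).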

[2] = system: HCV genotype 1b replicon; test: HCV replicon assay, genotype 1b replicon EC50; assay type: cell-based, Hepatitis C virus; details: read-out: EC50 [gt-1b]
In short: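 Assay format: compound titration on stable replicon cells, no G418 during treatment, 24 to 48 hours. Lysates were assayed for replicon RNA (hybridization/protection or TaqMan) or luciferase; EC50 fitted to four parameters against DMSO.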

[3] = IC50 [gt-1b] (nM), NS3/4A genotype 1b, enzyme 0.2 nM
[4] = Hepatitis C virus, genotype 1b replicon
[5] = IC50 [gt-1b] (nM), NS3/4A genotype 1b, enzyme 0.2 nM, HCOOH salt
[6] = Hepatitis C virus, genotype 1b replicon, HCOOH salt
[7] = IC50 [gt-1b] (nM), NS3/4A genotype 1b, enzyme 0.2 nM, K+ salt
[8] = Hepatitis C virus, genotype 1b replicon, K+ salt
[9] = IC50 [gt-1b], NS3/4A protease TRF assay, genotype 1b enzyme 0.2 nM
[10] = Hepatitis C virus, HCV replicon, genotype 1b

CC(C)OC(=O)N[C@H]1CCCCC/C=C\[C@@H]2C[C@@]2(C(=O)NS(=O)(=O)C2(C)CC2)NC(=O)[C@@H]2C[C@]3(CCc4c(c(C(F)(F)F)nc5ccccc45)O3)CN2C1=O [Example 157, propan-2-yl [(2R,6S,12Z,13aS,14aR,16aS)-14a-{[(1-methylcyclopropyl)sulfonyl]carbamoyl}-5,16-dioxo-5′-(trifluoromethyl)-1,1′,2′,5,6,7,8,9,10,11,13a,14,14a,15,16,16a-hexadecahydrospiro[cyclopropa[e]pyrrolo[1,2-a][1,4]diazacyclopentadecine-2,3′-pyrano[2,3-c]quinolin]-6-yl]carbamate]
IC50 [1, 3]: 0.02 nM | EC50 [2, 4]: 1.72 nM

COc1ccc2c3c(c(C4CC4)nc2c1)O[C@]1(CC3)C[C@H]2C(=O)N[C@]3(C(=O)NS(=O)(=O)C4(C)CC4)C[C@H]3/C=C\CCCCC[C@H](NC(=O)O[C@H]3C[C@@H](C)CC[C@@H]3C(C)C)C(=O)N2C1 [Example 275, (1S,2R,5S)-5-methyl-2-(propan-2-yl)cyclohexyl [(2R,6S,12Z,13aS,14aR,16aS)-5′-cyclopropyl-8′-methoxy-14a-{[(1-methylcyclopropyl)sulfonyl]carbamoyl}-5,16-dioxo-1,1′,2′,5,6,7,8,9,10,11,13a,14,14a,15,16,16a-hexadecahydrospiro[cyclopropa[e]pyrrolo[1,2-a][1,4]diazacyclopentadecine-2,3′-pyrano[2,3-c]quinolin]-6-yl]carbamate]
IC50 [1, 5]: 11.3 nM | EC50 [2, 6]: 39.5 nM

COc1ccc2nc(C(C)C)c3c(c2c1)[C@H](F)C[C@]1(C[C@H]2C(=O)N[C@]4(C(=O)NS(=O)(=O)C5(C)CC5)C[C@H]4/C=C\CCCCC[C@H](NC(=O)OC(C)(C)C(F)(F)F)C(=O)N2C1)O3 [Example 352, 1,1,1-trifluoro-2-methylpropan-2-yl [(1′R,2S,6S,12Z,13aS,14aR,16aS)-1′-fluoro-9′-methoxy-14a-{[(1-methylcyclopropyl)sulfonyl]carbamoyl}-5,16-dioxo-5′-(propan-2-yl)-1,1′,2′,5,6,7,8,9,10,11,13a,14,14a,15,16,16a-hexadecahydrospiro[cyclopropa[e]pyrrolo[1,2-a][1,4]diazacyclopentadecine-2,3′-pyrano[2,3-c]quinolin]-6-yl]carbamate]
IC50 [1, 7]: 0.042 nM | EC50 [2, 8]: 1.45 nM

COCCC(C)(C)OC(=O)N[C@H]1CCCCC/C=C\[C@@H]2C[C@@]2(C(=O)NS(=O)(=O)C2(C)CC2)NC(=O)[C@@H]2C[C@@]3(CN2C1=O)CC(F)(F)c1c(c(C(C)C)nc2ccc(OC)cc12)O3 [Example 244, 4-methoxy-2-methylbutan-2-yl [(2S,6S,12Z,13aS,14aR,16aS)-1′,1′-difluoro-9′-methoxy-14a-{[(1-methylcyclopropyl)sulfonyl]carbamoyl}-5,16-dioxo-5′-(propan-2-yl)-1,1′,2′,5,6,7,8,9,10,11,13a,14,14a,15,16,16a-hexadecahydrospiro[cyclopropa[e]pyrrolo[1,2-a][1,4]diazacyclopentadecine-2,3′-pyrano[2,3-c]quinolin]-6-yl]carbamate]
IC50 [1, 3]: 0.008 nM | EC50 [2, 4]: 2.89 nM

CC(C)(C)COC(=O)N[C@H]1CCCCC/C=C\[C@@H]2C[C@@]2(C(=O)NS(=O)(=O)C2(C)CC2)NC(=O)[C@@H]2C[C@]3(CCc4c(c(C(F)(F)F)nc5ccc(Cl)cc45)O3)CN2C1=O [Example 386, 2,2-dimethylpropyl [(2R,6S,12Z,13aS,14aR,16aS)-9′-chloro-14a-{[(1-methylcyclopropyl)sulfonyl]carbamoyl}-5,16-dioxo-5′-(trifluoromethyl)-1,1′,2′,5,6,7,8,9,10,11,13a,14,14a,15,16,16a-hexadecahydrospiro[cyclopropa[e]pyrrolo[1,2-a][1,4]diazacyclopentadecine-2,3′-pyrano[2,3-c]quinolin]-6-yl]carbamate]
IC50 [1, 9]: 0.029 nM | EC50 [2, 10]: 49.6 nM

CC(C)(OC(=O)N[C@H]1CCCCC/C=C\[C@@H]2C[C@@]2(C(=O)NS(=O)(=O)C2(C)CC2)NC(=O)[C@@H]2C[C@]3(CCc4c(c(C(F)F)nc5ccccc45)O3)CN2C1=O)C(F)(F)F [Example 309, 1,1,1-trifluoro-2-methylpropan-2-yl [(2R,6S,12Z,13aS,14aR,16aS)-5′-(difluoromethyl)-14a-{[(1-methylcyclopropyl)sulfonyl]carbamoyl}-5,16-dioxo-1,1′,2′,5,6,7,8,9,10,11,13a,14,14a,15,16,16a-hexadecahydrospiro[cyclopropa[e]pyrrolo[1,2-a][1,4]diazacyclopentadecine-2,3′-pyrano[2,3-c]quinolin]-6-yl]carbamate]
IC50 [1, 3]: 0.01 nM | EC50 [2, 4]: 1.94 nM

COCCOc1ccc2nc(C)c3c(c2c1)CC[C@]1(C[C@H]2C(=O)N[C@]4(C(=O)NS(=O)(=O)C5(C)CC5)C[C@H]4/C=C\CCCCC[C@H](NC(=O)OC(C)(C)C(F)(F)F)C(=O)N2C1)O3 [Example 430, 1,1,1-trifluoro-2-methylpropan-2-yl [(2R,6S,12Z,13aS,14aR,16aS)-9′-(2-methoxyethoxy)-5′-methyl-14a-{[(1-methylcyclopropyl)sulfonyl]carbamoyl}-5,16-dioxo-1,1′,2′,5,6,7,8,9,10,11,13a,14,14a,15,16,16a-hexadecahydrospiro[cyclopropa[e]pyrrolo[1,2-a][1,4]diazacyclopentadecine-2,3′-pyrano[2,3-c]quinolin]-6-yl]carbamate]
IC50 [1, 9]: 0.026 nM | EC50 [2, 10]: 5.04 nM

CCCCNC(=O)N[C@H]1CCCCC/C=C\[C@@H]2C[C@@]2(C(=O)NS(=O)(=O)C2(C)CC2)NC(=O)[C@@H]2C[C@]3(CCc4c(c(C)nc5ccccc45)O3)CN2C1=O [Example 287, (2R,6S,12Z,13aS,14aR,16aS)-6-[(butylcarbamoyl)amino]-5′-methyl-N-[(1-methylcyclopropyl)sulfonyl]-5,16-dioxo-1,1′,2′,6,7,8,9,10,11,13a,14,15,16,16a-tetradecahydrospiro[cyclopropa[e]pyrrolo[1,2-a][1,4]diazacyclopentadecine-2,3′-pyrano[2,3-c]quinoline]-14a(5H)-carboxamide]
IC50 [1, 5]: 0.013 nM | EC50 [2, 6]: 23 nM

COc1ccc2nc(C)c3c(c2c1)CC[C@]1(C[C@H]2C(=O)N[C@]4(C(=O)NS(=O)(=O)C5(C)CC5)C[C@H]4/C=C\CCCCC[C@H](NC(=O)OC(C(C)C)C(F)(F)F)C(=O)N2C1)O3 (stereo partly drawn) [Example 408, 1,1,1-trifluoro-3-methylbutan-2-yl [(2R,6S,12Z,13aS,14aR,16aS)-9′-methoxy-5′-methyl-14a-{[(1-methylcyclopropyl)sulfonyl]carbamoyl}-5,16-dioxo-1,1′,2′,5,6,7,8,9,10,11,13a,14,14a,15,16,16a-hexadecahydrospiro[cyclopropa[e]pyrrolo[1,2-a][1,4]diazacyclopentadecine-2,3′-pyrano[2,3-c]quinolin]-6-yl]carbamate]
IC50 ([1]; IC50 [gt-1b], NS3/4A protease TRF assay, genotype 1b enzyme 0.2 nM, K+ salt): 0.023 nM | EC50 ([2]; HCV replicon, genotype 1b, K+ salt): 1.23 nM

CCCOC(=O)N[C@H]1CCCCC/C=C\[C@@H]2C[C@@]2(C(=O)NS(=O)(=O)C2(C)CC2)NC(=O)[C@@H]2C[C@]3(CCc4c(c(C5CC5)nc5cc(OC)ccc45)O3)CN2C1=O [Example 271, propyl [(2R,6S,12Z,13aS,14aR,16aS)-5′-cyclopropyl-8′-methoxy-14a-{[(1-methylcyclopropyl)sulfonyl]carbamoyl}-5,16-dioxo-1,1′,2′,5,6,7,8,9,10,11,13a,14,14a,15,16,16a-hexadecahydrospiro[cyclopropa[e]pyrrolo[1,2-a][1,4]diazacyclopentadecine-2,3′-pyrano[2,3-c]quinolin]-6-yl]carbamate]
IC50 [1, 5]: 0.031 nM | EC50 [2, 6]: 5.9 nM

COc1ccc2nc(C)c3c(c2n1)CC[C@]1(C[C@H]2C(=O)N[C@]4(C(=O)NS(=O)(=O)C5(C)CC5)C[C@H]4/C=C\CCCCC[C@H](NC(=O)OC4(C)CCC4)C(=O)N2C1)O3 [Example 365, 1-methylcyclobutyl [(2R,6S,12Z,13aS,14aR,16aS)-2′-methoxy-6′-methyl-14a-{[(1-methylcyclopropyl)sulfonyl]carbamoyl}-5,16-dioxo-1,5,6,7,8,9,9′,10,10′,11,13a,14,14a,15,16,16a-hexadecahydrospiro[cyclopropa[e]pyrrolo[1,2-a][1,4]diazacyclopentadecine-2,8′-pyrano[2,3-c][1,5]naphthyridin]-6-yl]carbamate]
IC50 [1, 9]: 0.02 nM | EC50 [2, 10]: 4.93 nM

COc1ccc2nc(C)c3c(c2c1)CC[C@]1(C[C@H]2C(=O)N[C@]4(C(=O)NS(=O)(=O)C5(C)CC5)C[C@H]4/C=C\CCCCC[C@H](NC(=O)OC4CCCC4C)C(=O)N2C1)O3 (stereo partly drawn) [Example 200, 2-methylcyclopentyl [(2R,6S,12Z,13aS,14aR,16aS)-9′-methoxy-5′-methyl-14a-{[(1-methylcyclopropyl)sulfonyl]carbamoyl}-5,16-dioxo-1,1′,2′,5,6,7,8,9,10,11,13a,14,14a,15,16,16a-hexadecahydrospiro[cyclopropa[e]pyrrolo[1,2-a][1,4]diazacyclopentadecine-2,3′-pyrano[2,3-c]quinolin]-6-yl]carbamate]
IC50 [1, 7]: 0.005 nM | EC50 [2, 8]: 0.369 nM
